Laboratory results: patent publication US12264142B2, “Heterocyclic compounds” (FLORATEK PHARMA SA, priority 2019, dated 2025)
Entries after “also recorded” stand apart in the source; their conditions may differ.

Experiments:
C. elegans = assay: Life span assay on Automated Lifespan Machine (SND302, SND303); format: in vivo; details: for Maximum life span: average lifespan of the ten longest-lived worms; for Age in days at 25% mortality / Age in days at 50% mortality / Age in days at 75% mortality / Age in days at 90% mortality / Age in days at 100% mortality: SND302, SND303 25 μM, Uro A, Resveratrol 50 μM
Procedure: An additional life span assay using an adapted standard protocol employed and published by the C. elegans Intervention Testing Program, or CITP was employed to assess the activity of SND302 and SND303. A positive and a negative control were included in the assay. In a preliminary experiment the optimal conditions for the life span analysis was determined and the stress level induced by the compounds as well as toxicity were measured.
For the life span assay over 300 worms per conditions were used and the study was conducted by InVivoBiosystems (USA) using an Automated Lifespan Machine (ALM) with proprietary modifications to improve temperature stability and image acquisition.
To prevent chemical modification or metabolism of the test article by the food bacteria, worms were fed on a lawn of UV-killed bacteria (UV-i bacteria). An overnight culture of E. coli strain WP-2 was pelleted, washed, filtered, and irradiated. A suspension of UV-i bacteria was spotted on NGM agar containing Streptomycin to inhibit growth of contaminating bacteria. The quantity and distribution of food bacteria was calibrated to ensure adequate access to food for the duration of assay while maintaining visibility of the worms.
Test article was delivered to worms by a method compatible with and previously validated on the Automated Lifespan Machine and used by the CIT [Lucanic, et. al. Impact of genetic background and experimental reproducibility on identifying chemical compounds with robust longevity effects. Nature Communications 8 (2017)]. A 200× stock solution was freshly prepared in DMSO immediately before application. 40 μl of DMSO stock (0.5% plate volume) was applied to the plate to coat the food bacteria and then chased immediately with 160 μl water to uniformly distribute a fine precipitate across the surface of the plate. This functioned to provide reservoirs of compound in food, agar, and agar surface.
The ALM used by InVivoBiosystems is based on the Caenorhabditis elegans lifespan machine published by Stroustrup, N. et al. The Caenorhabditis elegans Lifespan Machine. N at Methods 10, 665-670 (2013), with proprietary modifications to improve temperature stability and image acquisition. The scanner unit consists of a modified EPSON V850 and images are processed and analyzed using the ALM software 7. The machine time-of-death calls are trained and validated using the “storyboarding” feature of the ALM software.
The lifespan assay was designed and performed according to published and validated methods, Amrit, F. R. G., Ratnappan, R., Keith, S. A. & Ghazi, A. The C. elegans lifespan assay toolkit. Methods 68, 465-475 (2014); Lucanic, et. al. Manual Lifespan Assay Standard Operating Procedure. Caenorhabditis Intervention Testing Program https://figshare.com/articles/7_CITP_SOP_Manual_Lifespan_Assay/9738197/1. using a modified version of the Automated Lifespan Machine. Worms were age synchronized by bleaching and eggs were plated directly onto NGM agar seeded with UV-I bacteria (Day 1, hatch). On Day 3, when the worms had reached the late L4 stage, they were transferred to dishes containing 100 μM 5-Fluorodeoxyuridine (FUdR) to suppress progeny. On day 5, the worms were washed off the dishes and 30-50 worms were plated on each scanner dish. Plates were immobilized inverted on the bed of an Automated Lifespan Machine which scanned two images per hour of the plates continuously for the next 40 days.
Time of death calls exported from the ALM software were analyzed and plotted using the Lifelines software package developed by Davidson-Pilon, (2019). lifelines: survival analysis in Python. Journal of Open Source Software, 4(40), 1317.

human hepatocytes [1] = assay: Cell viability (ATP content) in primary human hepatocytes; format: cell-based; details: 1 to 100 μM, 24 h exposure, pooled human hepatocytes
Procedure: (§1) Cytotoxicity potency of test compound SND301 was assayed in human hepatocytes from pooled donor lots at three concentrations; 1, 10 and 100 μM. Cytotoxicity was assayed from medium samples after 24 h exposure period with test compounds by measuring membrane integrity (LDH leakage), coupled to fluorescent signal. In parallel, cell viability was assayed by the means of ATP content, indicating the metabolically competent cell activity. ATP content was measured based on luciferase catalysed reaction generating stable bioluminescent signal. Cytotoxic positive control compound was used: chlorpromazine at 5-250 μM.
(§2) Cryopreserved human hepatocytes from pooled donor lot (Bioreclamation IVT) were seeded on collagen I coated 96-well plates (Corning Biocoat) at 0.55×10^5 cells per well in 120 μl InVitroGRO™ CP medium (BioIVT), including additives Torpedo Antibiotic mix (BioIVT). […] Cytotoxicity and cell viability were evaluated based on LDH release in medium and ATP content in the cells after 24 hours exposure phase.
The remaining medium and cells were used for the assessment of metabolically competent cells (ATP) according to the manufacturer's (Promega) protocol. […] The samples were transferred to white opaque-walled 96-well plate (Corning #3610) after which measured with plate reader for luminescence.
(§3) Both LDH and ATP assays were measured 1-2 hours post treatment with assay components.

human hepatocytes [2] = assay: Cytotoxicity (LDH leakage, membrane integrity) in primary human hepatocytes; format: cell-based; details: 1 to 100 μM, 24 h exposure, pooled human hepatocytes
Procedure: as §1, §2
After 24 h exposure half of the culture medium (50 μl) was transferred to black opaque-walled 96-well plate (Corning #3603) for LDH measurements and allowed to settle to room temperature. […] Thereafter the samples were analysed with plate reader for fluorescence (LDH; 560ex, 590em).
as §3

[3] = test system: N2 wild type strain of worms; assay: Toxicity and food avoidance test in worms (SND301); format: in vivo, C. elegans; details: concentrations up to 50 μM, from embryo to first day of adulthood
Procedure: In a first stage of this study, normal worms were treated with various concentrations of SND301 to test toxicity and food avoidance.
To test food avoidance worms were placed on agar plates containing a grid of alternating control and compound-containing food spots. The number of worms on each food spot was recorded every two hours.

[4] = test system: N2 wild type strain of worms; assay: C. elegans life span (survival) assay, manual scoring (SND301); format: in vivo; details: for Death events / Maximum life span / Median lifespan: SND301 and Urolithin A 50 μM; for % Complete: deaths attributed to aging from total worm population
Procedure: The survival assay was conducted in the presence of 50 μM SND301 with measurements of live, dead, and censored worms at time points every 2-3 days from the start of adulthood.
Thioflavin T was used in the assay as a positive control [Gamir-Morralla A et al, 2019, “Effects of Thioflavin T and GSK-3 Inhibition on Lifespan and Motility in a Caenorhabditis elegans Model of Tauopathy”, J Alzheimers Dis Rep., 3(1): 47-57]. Vehicle 25% and 1% DMSO were used as controls and represent the vehicles in which compounds and bacteria or bacteria alone respectively were resuspended. The final DMSO concentration in the agar plates was 0.5% and 0.02% respectively.
5 mM DMSO stock solutions for each compound were prepared in high-grade DMSO. Stocks were protected from light and stored in glass vials at 21° C. in a temperature-controlled room (to avoid freeze/thaw of DMSO). A fresh stock was prepared at the start of each experiment and stored for <1 week.
The lifespan assay was designed and performed according to published and validated methods with modifications for chemical treatment [Amrit F R G et al, 2014, “The C. elegans lifespan assay toolkit”, METHODS 68, 465-475; Leukanic, et. Al, “Manual Lifespan Assay Standard Operating Procedure”, Caenorhabditis Intervention Testing Program, https://figshare.com/articles/7_CITP_SOP_Manual_Lifespan_Assay/9738197/1]. Plates were seeded with compound dissolved in 25% DMSO and bacteria. The DMSO diffused through the agar to reach a final concentration of 0.5%. Synchronized day 1 adult worms were transferred to seeded plates containing compound and allowed to lay eggs for 2 hours (Day 0, “hatchoff”). The young adults were then removed, and the eggs were incubated at 20° C. until they had reached the young adult stage (day 3). 200 young adult worms per treatment were transferred to 8 fresh seeded 35 mm dishes with compound and 50 μM 5-Fluorodeoxyuridine to suppress progeny. […] Worms that were missing, stuck to the dish, burrowed, injured, or exploded were scored as censored and removed from the plate. To maintain chemical exposure at the experimental concentrations, worms were transferred every other scoring day to new seeded plates with compound.

[5] = test system: C. elegans gene expression; assay: Whole transcriptome analysis (RNA-Seq) of treated worms; format: in vivo; details: for Significant differentially-expressed genes: 25 μM
Procedure: To determine the mode of action for SND302 and SND303 the gene transcription in young and aged adults was analyzed by RNA-Seq (whole transcription analysis). For each condition, >300 worms were treated in parallel with the lifespan assay and maintained under identical conditions.
Differential gene expression was performed with EdgeR using […] likelihood ratio tests based on fitting linear models. The likelihood ratios were used to determine the p-values which were subsequently corrected for using the BH false discovery rate (fdr) method. Eventually, differential expressed genes were defined as genes with fdr-corrected p-value of 0.05 or lower, as well as a change in expression of at least 2-fold in a given between-group comparison. Compounds SND302 and SND303 were compared against Urolithin and Vehicle control. […] In general the transcriptomic data corroborates a differential effect for SND303 when compared to SND302 (FIGS. 1-4).
Worms for RNA-Seq were split from the same synchronized pool of worms for the lifespan with each of the three replicates being maintained and treated in parallel. More than 150 worms per replicate were harvested, cleaned by filtration, and frozen at −80° in Trizol. To extract RNA, samples were thawed, vigorously vortexed, and processed using the Direct-zol RNA Miniprep Kit (Zymo Research). All samples exceeded our threshold for RNA quantity and quality. RNA samples were submitted to Novogene Co. Ltd and subjected to more stringent QC, being tested on a Qubit for concentration and run on an agarose gel and on the Agilent […] assess RNA quality and integrity. […] The total RNA was then enriched for poly-mRNA using oligo(dT) paramagnetic beads. DNA libraries were then constructed from this input mRNA using the NEBNext Ultra™ II RNA Library Prep Kit.
These libraries were then further tested by the Qubit for concentration and the Agilent 2100 for library size distribution and quality. In order to properly pool the libraries and load them onto sequencing lanes to ensure the correct number of reads per sample, an even more precise quantification of the library was done via qPCR, and the samples were loaded onto the NovaSeq 6000 platform for a paired-end sequencing run of 150 bp for each end (PE150). The loading concentrations were designed to obtain at least 6.0 Gb (which is the number of billion bases of raw data, determined by the number of reads multiplied by the length of each read). A mean of 7.4 Gb (median 7.3 Gb) raw sequencing data was obtained across all samples, with a minimum of 6.3 Gb and a maximum of 8.5 Gb raw data. Sequencing run data quality control was performed both by Novogene and by an in-house analysis. The raw data set was analyzed for parameters such as the distribution of base quality along the length of the sequencing read, the distribution of error rate along the length of the sequencing read. Reads containing adapter sequences, with N>10% (where N means “base cannot be determined”) and with a low quality (Qscore<=5) for 50% or more of its total bases were removed.

[6] = Table 1A, at a certain point during the study, N2

SMILES	Age in days at 25% mortality (C. elegans) [days]	Age in days at 50% mortality (C. elegans) [days]	Age in days at 75% mortality (C. elegans) [days]	Age in days at 90% mortality (C. elegans) [days]	Age in days at 100% mortality (C. elegans) [days]	Death events [4, 6]	% Complete [4, 6] [%]	Death events ([4]; Table 1B, end of the study)	Maximum life span ([4]; end of the study) [days]	Median lifespan ([4]; end of the study) [days]	further results
Oc1ccc(C=Cc2cc(O)cc(O)c2)cc1 [Resveratrol, reference compound]	24.6	28.2	30.5	32.7	37.8						Median lifespan (C. elegans; 50 μM): 28.2 days; Maximum life span (C. elegans; 50 μM): 36.6 days
CNC(=O)Oc1ccc2c(c1)oc(=O)c1cc(OC(=O)NC)ccc12 [SND301]						59	31.6	179	31	24	ATP content (human hepatocytes [1]): 72-103%; Cytotoxicity (LDH) leakage (human hepatocytes [2]): 7-10%; Tolerability of exposure [3]: well tolerated; Effect on lifespan ([4]; 50 μM, in words): significantly increased life span; also recorded: significantly increased median lifespan; Surviving fraction ([4]; until day 24, compared with all groups): highest surviving fraction by a considerable margin
CCNC(=O)Oc1ccc2c(c1)oc(=O)c1cc(OC(=O)NCC)ccc12 [SND302]	24.2	28.2	31.0	33.0	37.9						Median lifespan (C. elegans; 25 μM): 28.2 days; Mean lifespan (C. elegans; 25 μM, area under the survival curve): 27.0 days; Maximum life span (C. elegans; 25 μM): 36.1 days; Effect on lifespan (C. elegans; in words, compared to control): did not show a significant difference from the control; Significant differentially-expressed genes ([5]; Day 3, compared to the controls (Vehicle and Urolithin A)): 7-8 genes; Expression of gene C50F7.5 ([5]; Day 10): significantly upregulated; Significant differentially-expressed genes ([5]; Day 10, compared to the controls (Vehicle and Urolithin A)): 12-14 genes; Toxicity and stress response induction (transcriptome) ([5]; early exposure period): some signs of toxicity and stress response induction
Cc1ccc2c(c1)sc(-c1ccc(N(C)C)cc1)[n+]2C.[Cl-] [Thioflavin, Thioflavin T]						38	23.2	38	33	21	
